Measured values: patent US20040063703A1, “Synergistic pesticide mixtures for the control of animal pests” (priority 2001, published 2004)

Tests used:
[1] = tested on: caterpillars of the diamondback moth (Plutella xylostella, sensitive strain); assay: Plutella test, sensitive strain (LC95, Carpenter); type: in vivo; conditions: found
Description: Plutella Test, Sensitive Strain

[2] = tested on: caterpillars of the armyworm (Spodoptera frugiperda); assay: Spodoptera frugiperda test (LC50, Carpenter); type: in vivo; conditions: found, cabbage leaf dip
Description: (§1) Spodoptera frugiperda Test

[3] = tested on: larvae of the mustard beetle (Phaedon cochleariae); assay: Phaedon larvae test (LC50, Carpenter); conditions: found, cabbage leaf dip
[4] = tested on: caterpillars of the diamondback moth (Plutella xylostella, resistant strain); assay: Plutella test, resistant strain (LC95, Carpenter); type: in vivo; conditions: found
Description: Plutella Test, Resistant Strain

[5] = tested on: resistant caterpillars of the diamondback moth (Plutella xylostella); assay: Plutella test (resistant) (kill rate, Colby); type: in vivo; conditions: resistant strain
Experimental: Plutella Test (Resistant)
(§2) The kill rates determined are calculated using Colby's formula (see sheet 1).

[6] = tested on: normally sensitive caterpillars of the diamondback moth (Plutella xylostella); assay: Plutella test (normally sensitive) (kill rate, Colby); type: in vivo; conditions: normally sensitive strain
Experimental: Plutella Test (Normally Sensitive)
as §2

[7] = tested on: larvae of the mustard beetle (Phaedon cochleariae); assay: Phaedon larvae test (kill rate, Colby); type: in vivo; conditions: cabbage leaf dip
Experimental: as §2

[8] = tested on: Heliothis virescens caterpillars; assay: Heliothis virescens test (kill rate, Colby); type: in vivo; conditions: soya bean shoot dip
Experimental: as §2

[9] = tested on: caterpillars of the armyworm (Spodoptera frugiperda); assay: Spodoptera frugiperda test (kill rate, Colby); type: in vivo; conditions: cabbage leaf dip
Experimental: as §1, §2

CN/C(=N\[N+](=O)[O-])NCc1cnc(Cl)s1 [clothianidin (X), (E)-1-(2-chloro-1,3-thiazol-5-yl-methyl)-3-methyl-2-nitroguanidine]
LC95 after 6 days [1]: 26.037 ppm
LC50 after 6 days [2]: 0.662 ppm
LC50 after 6 days [3]: 2.372 ppm
LC95 after 6 days [4]: 50.722 ppm

N#C/N=C1\SCCN1Cc1ccc(Cl)nc1 [thiacloprid, (Z)-3-(6-chloro-3-pyridylmethyl)-1,3-thiazolidin-2-ylidenecyanamide]
Kill rate in % after 6 days ([5]; 3 ppm): 0%
Kill rate in % after 6 days ([6]; 3 ppm): 0%
Kill rate in % after 6 days ([7]; 3 ppm): 0%

COC(=O)N(C(=O)N1CO[C@@]2(C(=O)OC)Cc3cc(Cl)ccc3C2=N1)c1ccc(OC(F)(F)F)cc1 [indoxacarb]
Kill rate in % after 3 days ([8]; 0.1 ppm): 0%
Kill rate in % after 6 days ([5]; 0.1 ppm): 55%
LC95 after 6 days [1]: 0.531 ppm
LC50 after 6 days [2]: 0.136 ppm
Kill rate in % after 6 days ([6]; 0.1 ppm): 65%
LC50 after 6 days [3]: 0.1 ppm
LC95 after 6 days [4]: 0.234 ppm
Kill rate in % after 3 days ([7]; 0.5 ppm): 20%
Kill rate in % after 6 days ([7]; 0.5 ppm): 45%
Kill rate in % after 6 days ([9]; 0.02 ppm): 0%

O=[N+]([O-])/N=C1\NCCN1Cc1ccc(Cl)nc1 [imidacloprid, 1-[(6-chloro-3-pyridinyl)methyl]-N-nitro-2-imidazolidineimine]
Kill rate in % after 3 days ([8]; 3 ppm): 15%
Kill rate in % after 3 days ([7]; 3 ppm): 0%
Kill rate in % after 6 days ([9]; 0.6 ppm): 0%
